Experimental data reported in patent publication US11226337B2, “Chemoproteomic profiling of protein electrophilic and oxidative post-translational modifications” (Zenagem, LLC, priority 2017, dated 2022).

Experiments:
Assay in all cases: SILAC RP-ABPP
Type in all cases: cell-based
[1] = target: T1, AMD1 S-adenosylmethionine decarboxylase (P17707) (Homo sapiens, UniProt P17707); conditions: SILAC H/L, HEK293T
T1 construct: shared by both the endogenous and recombinant forms of these proteins; endogenous in cells; host or cells: HEK293T and MDA-MB-231
T1 sequence (P17707 68-334 limits assumed): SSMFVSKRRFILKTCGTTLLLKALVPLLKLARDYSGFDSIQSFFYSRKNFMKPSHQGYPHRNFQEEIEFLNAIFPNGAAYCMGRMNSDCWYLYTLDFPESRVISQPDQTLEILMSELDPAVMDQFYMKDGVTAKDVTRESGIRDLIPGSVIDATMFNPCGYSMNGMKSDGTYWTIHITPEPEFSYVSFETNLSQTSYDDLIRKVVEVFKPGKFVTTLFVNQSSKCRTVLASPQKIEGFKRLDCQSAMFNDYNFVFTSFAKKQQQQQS
T1 sequence (P17707 1-67 limits assumed): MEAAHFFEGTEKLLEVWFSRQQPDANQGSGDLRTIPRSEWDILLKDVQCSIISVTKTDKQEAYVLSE
Experimental: (§1) Modifications to this protocol included using isotopically ‘light’ and ‘heavy’ SILAC cells that were also grown to near complete confluence prior to treatment. Isotopically light cells were treated with the non-clickable hydrazine probe (at the same concentration as the probe in ‘enrichment’ experiments) or the probe in the presence of 10-fold excess non-clickable hydrazine probe as a competitor (in ‘competition’ experiments). Isotopically heavy cells were treated with the probe for both types of experiments. These treatments were performed in non-SILAC media. Following treatments, cells were washed with cold PBS to remove the probe-containing media, harvested by scraping, collected by centrifugation (1,400 g, 3 min, 4° C.), washed again by resuspension in cold PBS and frozen as pellets at −80° C. until use.
(§2) The fractionated equimolar mixture of heavy and light soluble proteomes (1-1.5 mg) was diluted to 1 mL in PBS. Click reactions were scaled accordingly (except for biotin-azide) to maintain final concentrations of 0.1 mM TBTA, 1 mM CuSO4, 100 μM biotin-azide (10 mM in DMSO) and 1 mM TCEP. The mixture was vortexed and placed on a rotator at ambient temperature for 1 hour. Sequential addition of and mixture with pre-chilled methanol (MeOH, 2 mL), chloroform (CHCl3, 0.5 mL) and PBS (1 mL) on ice quenched the reaction. The precipitated proteome was centrifuged (5,000 g, 10 min, 4° C.) to fractionate the protein interphase from the organic and aqueous solvent layers. The protein pellet was washed with cold 1:1 MeOH:CHCl3 (3×1 mL), mildly sonicated in cold 4:1 MeOH:CHCl3 (2.5 mL) and pelleted once more by centrifugation (5,000 g, 10 min, 4° C.) to ensure click reagents were efficiently removed.
(§3) Heavy and light parent ion chromatograms associated with successfully identified peptides were extracted and compared using CIMAGE software as previously described^69. At least one ion of a co-eluting heavy-light pair must be accurately identified from a fragmentation event that occurred within the retention time window (±10 min) of parent ion elution. To ensure that the correct pair of peaks is quantified, chromatograms are extracted within a 10 ppm error tolerance of the predicted m/z, the signal-to-noise ratio must be >2.5 and the ‘co-elution correlation score’ and ‘envelope correlation score’ must have R^2 values ≥0.8. In addition, peptides detected as ‘singletons,’ where only the heavy ion of a peptide pair was identified, but for which passed all other filtering parameters, are given a default assigned ratio of ‘20,’ which is defined as any measured ratio that is ≥20.
(§4) To further eliminate false positives and any stochastic variability in the data, protein ratios were then determined by the median peptide ratio derived from three or more unique quantified peptides. Protein ratios that complied with these criteria from a single experiment were then averaged with ratios acquired from ≥3 replicates to provide final values for each type of experiment in both cell lines with both probes. […] Probe targets in HEK293T and MDA-MB-231 cells represent data combined from ≥3 independent biological replicates with each cell type performed with several independent batches of synthesized probes over a period of almost two years.
(§5) Two types of experiments were performed—1) direct enrichment of probe 1-labelled proteins from heavy cells in comparison to light control cells treated with the non-clickable hydrazine (3) at the same concentration as 1 (3 mM for 0.5 h); and 2) competition experiments where both heavy and light cells were treated probe 1, but light cells were also treated with 10× competitor 3 (FIG. 3A)—in two different human cell lines (HEK293T cells and the human breast cancer cell line MDA-MB-231).

[2] = target: T2, SCRN2 Secernin-2 (Q96FV2) (Homo sapiens, UniProt Q96FV2); conditions: SILAC H/L, HEK293T
T2 construct: shared by both the endogenous and recombinant forms of these proteins; endogenous in cells; host or cells: HEK293T and MDA-MB-231
Experimental: as §1, §2, §3, §4, §5

LGMN Legumain (Q99538) = target: T3, LGMN Legumain (Q99538) (Homo sapiens, UniProt Q99538); conditions: SILAC H/L
T3 construct: shared by both the endogenous and recombinant forms of these proteins; endogenous in cells; host or cells: HEK293T and MDA-MB-231
T3 sequence (Q99538 18-323): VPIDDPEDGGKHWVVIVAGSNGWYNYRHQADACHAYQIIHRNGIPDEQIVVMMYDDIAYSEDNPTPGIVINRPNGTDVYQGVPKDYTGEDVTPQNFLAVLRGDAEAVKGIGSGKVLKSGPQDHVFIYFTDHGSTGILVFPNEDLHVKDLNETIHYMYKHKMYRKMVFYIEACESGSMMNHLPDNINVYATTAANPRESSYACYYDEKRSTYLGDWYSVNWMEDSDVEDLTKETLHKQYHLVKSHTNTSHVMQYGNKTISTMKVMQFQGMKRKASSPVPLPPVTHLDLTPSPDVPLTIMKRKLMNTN
Experimental: as §1, §2, §3, §4, §5

[3] = target: T4, SCRN3 Secernin-3 (Q0VDG4) (Homo sapiens, UniProt Q0VDG4); conditions: SILAC H/L, HEK293T
T4 construct: shared by both the endogenous and recombinant forms of these proteins; endogenous in cells; host or cells: HEK293T and MDA-MB-231
T4 sequence (Q0VDG4 6-424): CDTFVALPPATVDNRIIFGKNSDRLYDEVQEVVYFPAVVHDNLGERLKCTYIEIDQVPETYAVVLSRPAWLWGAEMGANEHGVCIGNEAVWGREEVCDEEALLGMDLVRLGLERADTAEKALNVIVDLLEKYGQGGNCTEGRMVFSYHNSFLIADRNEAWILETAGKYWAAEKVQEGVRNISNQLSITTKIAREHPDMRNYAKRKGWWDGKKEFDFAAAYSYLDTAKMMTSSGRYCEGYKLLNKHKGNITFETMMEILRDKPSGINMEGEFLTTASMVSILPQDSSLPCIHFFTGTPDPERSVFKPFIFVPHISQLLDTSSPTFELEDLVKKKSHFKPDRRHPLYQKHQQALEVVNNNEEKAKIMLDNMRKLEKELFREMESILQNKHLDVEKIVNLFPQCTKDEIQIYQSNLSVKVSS
Experimental: as §1, §2, §3, §4, §5

Work on `C#CCNN.Cl` [probe 1, prop-2-yn-1-ylhydrazine hydrochloride] yielded an enrichment ratioavg ([1]; probe 1 3 mM 0.5 h vs probe 3) of 20, a competition ratioavg ([1]; probe 1 vs probe 1+10x probe 3) of 5 and an enrichment ratioavg ([2]; probe 1 3 mM 0.5 h vs probe 3) of 20. For the same molecule, the competition ratioavg ([2]; probe 1 vs probe 1+10x probe 3) was 9, the enrichment ratioavg (LGMN Legumain (Q99538); probe 1 3 mM 0.5 h vs probe 3, HEK293T) was 20 and the competition ratioavg (LGMN Legumain (Q99538); probe 1 vs probe 1+10x probe 3, HEK293T) was 18. It also gave an enrichment ratioavg ([3]; probe 1 3 mM 0.5 h vs probe 3) of 20 and a competition ratioavg ([3]; probe 1 vs probe 1+10x probe 3) of 6.
`C#CCCNC(=O)c1ccc(NN)cc1.Cl` [probe 2, N-(but-3-yn-1-yl)-4-hydrazinylbenzamide hydrochloride] showed an enrichment ratioavg ([1]; probe 2 1 mM 0.5 h vs probe 4) of 20, a competition ratioavg ([1]; probe 2 vs probe 2+10x probe 4) of 6 and an enrichment ratioavg ([2]; probe 2 1 mM 0.5 h vs probe 4) of 20. For the same molecule, the competition ratioavg ([2]; probe 2 vs probe 2+10x probe 4) was 13, the enrichment ratioavg (LGMN Legumain (Q99538); probe 2 1 mM 0.5 h vs probe 4, MDA-MB-231) was 20 and the competition ratioavg (LGMN Legumain (Q99538); probe 2 vs probe 2+10x probe 4, MDA-MB-231) was 4. The enrichment ratioavg ([3]; probe 2 1 mM 0.5 h vs probe 4) was 15 and the competition ratioavg ([3]; probe 2 vs probe 2+10x probe 4) was 16.
